Assay results published in patent publication US5089424A, “Method and apparatus for heterogeneous chemiluminescence assay” (Abbott Laboratories, priority 1989, dated 1992).

Columns and labels:
[1] = system: Monoclonal anti-phenylcyclidine antibody; assay: Ion-capture acridinium labeled chemiluminescence competitive binding immunoassay for phenylcyclidine (PCP) in urine; conditions: for Signal Counts: integrated for eight seconds, 0 ng/mL: 188329
Experimental: Monoclonal anti-phenylcyclidine antibody was labeled with acridinium sulfonamide using EDAC coupling procedures known in the art. It was kept in the same buffer used for the anti-core conjugate of Example 3.
80 μL of IMx Tris buffer solution followed by 80 μL Celquat™ L-200 solutions were dispensed on the glass fiber matrices of the disposable reaction tray. Solutions were dispensed using two FMI-RH pumps and controlled via a triac board by an Intel 310 Development System (Intel Inc., Sunnyvale, Calif.). The tray was moved on a linear track using a timing belt and a stepper motor. The stepper motor was controlled by a board employing components known in the art. After 4.8 minutes, 50 μL of calibrator (sample) was pipetted into the shallow reaction wells of a disposable reaction tray, using an automated pipettor. 50 μL of acridinium labeled anti-PCP antibodies was dispensed into each incubation well. The mixture was incubated for 9.6 minutes in a heated tunnel at 32° C. with the disposable device moving into the tunnel by the timing belt in steps at the rate of 0.8 inches per minute, the reaction tray being stationary for 36 seconds after each step for a reaction step to take place. After 9.6 minutes incubation on the moving timing belt, 50 μL a solution containing PCP-PGA capture reagent at a concentration of 1.9 mg PGA/mL was dispensed into the incubation well through a tip centered on the well. The capture reagent solution was dispensed by an FMI-RH pump and controlled by the 310 Development system through a triac interface board. The reaction mixture was further incubated for 9.6 minutes. The quaternary ammonium polymer-treated glass fiber matrices were rinsed with 100 μL of the IMx buffer before reaction mixture transfer.
As the disposable tray was positioned under the transfer device as described herein, the reaction mixture was transferred and washed from the shallow incubation well onto the pre-treated glass fiber matrix in the detection well. The disposable tray was moved on the timing belt to allow subsequent well pairs to be located under the transfer device and to affect transfer of the reaction mixture. The disposable device was then moved to a read position, where the chemiluminescence detection head of the present invention was lowered to mate with the surface feature on the first two wells on the disposable to create a light-tight seal. The retained and immobilized immune complex on the glass fiber matrix was triggered using 0.3% alkaline peroxide solution in 0.25M NaOH and the signal from each PMT/amplifier was controlled by a counter/timer board and each side was triggered with an independent pump. The photon counter signal was integrated for eight seconds.

[2] = system: anti-PCP antibody; assay: Fluorescence polarization competitive binding assay in solution (TDx), fluorescein-labeled PCP analog; conditions: 0 ng/mL: 198
[3] = system: Anti-phenylcyclidine antibodies; assay: Ion-capture alkaline phosphatase labeled chemiluminescence competitive binding immunoassay for phenylcyclidine in urine; conditions: 0 ng/mL: 3526

c1ccc(C2(N3CCCCC3)CCCCC2)cc1 [Phenylcyclidine, phenylcyclidine]
% Inhibition ([1]; 25 ng/mL PCP in human urine): 73.3%
Signal Counts ([1]; 25 ng/mL PCP in human urine): 50347 counts
% Inhibition ([1]; 60 ng/mL PCP in human urine): 83.6%
Signal Counts ([1]; 60 ng/mL PCP in human urine): 30839 counts
% Inhibition ([1]; 120 ng/mL PCP in human urine): 87.3%
Signal Counts ([1]; 120 ng/mL PCP in human urine): 23977 counts
% Inhibition ([1]; 250 ng/mL PCP in human urine): 89.2%
Signal Counts ([1]; 250 ng/mL PCP in human urine): 20379 counts
% Inhibition ([1]; 500 ng/mL PCP in human urine): 89.5%
Signal Counts ([1]; 500 ng/mL PCP in human urine): 19759 counts
Net Polarization ([2]; Table 4, 25 ng/mL): 173 ΔmP
Net Polarization ([2]; Table 4, 60 ng/mL): 144 ΔmP
Net Polarization ([2]; Table 4, 250 ng/mL): 82 ΔmP
Net Polarization ([2]; Table 5, 25 ng/mL): 173
Net Polarization ([2]; Table 5, 60 ng/mL): 144
Net Polarization ([2]; Table 5, 120 ng/mL): 112
Net Polarization ([2]; Table 5, 250 ng/mL): 82
Net Polarization ([2]; Table 5, 500 ng/mL): 65
Chemiluminescence signal ([3]; 25 ng/mL phenylcyclidine in human urine): 2162 counts/6 seconds
Chemiluminescence signal ([3]; 60 ng/mL phenylcyclidine in human urine): 1440 counts/6 seconds
Chemiluminescence signal ([3]; 250 ng/mL phenylcyclidine in human urine): 1016 counts/6 seconds
